US12692274B2, “Tetrahydroisoquinoline derivatives for the treatment of red blood disorders and inflammatory diseases” (Sanofi, priority 2020, dated 2026)
Values joined by “and” are separate entries in the source; they are usually repeats but may differ in a detail not shown here. Identical values can stand only once. Like-named read-outs stand apart in the source and are kept apart here.

Tests used:
[1] = system: genes of interest (GOI) in HUDEP cells; experiment: Gene expression by qPCR in HUDEP cells treated with compound titration; type: cell-based; conditions: HbG, read-out: HUDEP HbG EC50 (μM) (Num)
Description: Evaluation of the gene expression by qPCR in HUDEP cells treated with titration of novel compounds. HUDEP Compound Treatment Method
HUDEP cells were plated in 96-well plates, @ 25,000 cells per well in 200 μL of maintenance media. Compounds were added in a 10-point dose response starting at 10 uM with 1/3 dilution scheme using the HP digital diluter. A DMSO control was run to all for normalization of DMSO. The compounds were incubated for 48 hours in 37° C. incubator with 5% CO2. Post incubation, total RNA was isolated using Cells to Ct kit and gene expression was evaluated for genes of interest (GOI) after normalizing to a housekeeping gene. The ΔΔCT was calculated and compared to the DMSO control.
Cell Lysis, Isolation and Gene Expression Materials
Cells to Ct is a kit offered by Applied Biosystems. mRNA prepared using this kit can be directly used for cDNA conversion followed subsequently with qPCR for gene expression analysis
Cell lysis and preparation of RNA: For suspension cells such as HUDEPs, 10,000-100,000 cells (as per kit guidelines) were used for making lysates. The plate was centrifuged at 1500 rpm for 5 mins and the cells were pelleted. Spent medium was removed using a multi-channel pipette. 200 μL ice-cold PBS was added to all treated wells, followed by centrifuging at 1500 rpm for 5 mins 195 μL cold PBS were aspirated from all treatment wells without disturbing the cell monolayer.
To prepare the Cells to CT lysis solution, 49.5 μL of the Cells to CT Lysis Buffer and 0.5 μL/well DNase I (returned DNase I reagent to the −20 C freezer immediately after pipetting) were added to each well. The Cells to CT lysis solution was pipetted to a reservoir and 50 μL were added per well to the treated wells. (Mix 35 μL 5 times without creating bubbles and set timer to 5 mins. At the end of the 5-minute incubation, add 5 μL of stop solution with a multichannel pipet touching the tip to the liquid. Then mix 35 μL 5 times without creating bubbles and set timer to 2 mins.)
The plates were sealed and stored at −20° C. until cDNA synthesis. Optionally they were placed on ice to allow for directly moving to the cDNA synthesis.
cDNA Synthesis: The cell lysate plates were thawed on ice if necessary and mixed 4 times with a multi-channel pipette. 4 μL of Superscript IV VILO and 6 μL of Nuclease free water were combined together for each sample. The mixture was poured into a reservoir and 10 μL was pipetted into each well of a 96-well PCR plate. 10 μL of lysate prepared previously was added and mixed 5 times. The wells were completely sealed, especially around the edges, with plate sealing film using the plate sealing paddle. The PCR plate was centrifuged to pull down the sample to the bottom of the wells. The lysate plate was sealed and returned to the −20° C. freezer as soon as possible. The PCR plate was placed in the thermal cycler and run at 20 μL at 25° C. for 10 minutes, 50° C. for 10 minutes, 85° C. for 5 minutes and then 4° C.
Real Time PCR: The cDNA plate was thawed at room temperature when necessary and 30 μL nuclease free water was added to each cell lysate, followed by mixing, up and down 4 times with a pipette. The primers were thawed for the genes of interest—both housekeeping gene (HKG) and gene(s) of interest (GOI).
A template was prepared and the number of wells needed for each gene of interest (GOI) calculated. Each sample required 2 μL of cDNA, 5 μL of Taqman Master Mix, 0.16667 μL of GOI at 60 times concentration, 0.16667 μL of HKG at 60 times concentration and 2.6667 μL of nuclease free water. If genes at 20 times concentration were used, then 2 μL cDNA, 5 μL Taqman Master Mix, 0.5 GOI, 0.5 μL HKG and 2 μL of nuclease free water were combined for each well.
After calculating the number of wells for each gene, GOI, HKG, Taqman Master Mix and Nuclease free water were combined. 8 μL were pipetted in to each well of the 384-well PCR plate as detailed in the template. […]

[2] = biological target: HIS-Keap1 full length / Biotin-Nrf2 (16-mer) (Homo sapiens, UniProt Q14145); experiment: biochemical
[3] = system: NQO1 activation in BEAS-2B cells; experiment: BEAS-2B cellular MTT assay of NQO1 activation, 0% HSA; type: cell-based
Summary of the method: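 For the 0% HSA condition, cells were seeded into collagen plates in HSA-free medium. Culture was BEAS-2B in BEBM plus BEGM SingleQuots lacking GA-1000, held under 70% confluence, at a seeding density reaching 95-100% confluence by 48 h.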

[4] = system: NQO1 activation in BEAS-2B cells; experiment: BEAS-2B cellular MTT assay of NQO1 activation, 0.3% HSA; type: cell-based
Summary of the method: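 MTT read-out in BEAS-2B cells grown in BEBM with SingleQuots, no GA-1000, kept below 70% confluence; plates coated with collagen, with 0.3% or 0% HSA medium, seeded to 95-100% confluency at 48 h, 37 °C, 5% CO2.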

[5] = the molecule shown is the open-chain precursor
[6] = Homo sapiens, serum free, read-out: BEAS EC50 (nM) serum free
[7] = serum free, read-out: BEAS EC50 (nM) serum free
[8] = BEAS+ W, read-out: BEAS+ W EC50
[9] = Homo sapiens, BEAS+ W, read-out: BEAS+ W EC50
[10] = Homo sapiens, BEAS+, read-out: BEAS+ EC50
[11] = rcm bond, 22-membered ring, Grubbs catalyst (General procedure 7)

Sequence of HIS-Keap1 full length / Biotin-Nrf2 (16-mer) (Q14145 whole entry): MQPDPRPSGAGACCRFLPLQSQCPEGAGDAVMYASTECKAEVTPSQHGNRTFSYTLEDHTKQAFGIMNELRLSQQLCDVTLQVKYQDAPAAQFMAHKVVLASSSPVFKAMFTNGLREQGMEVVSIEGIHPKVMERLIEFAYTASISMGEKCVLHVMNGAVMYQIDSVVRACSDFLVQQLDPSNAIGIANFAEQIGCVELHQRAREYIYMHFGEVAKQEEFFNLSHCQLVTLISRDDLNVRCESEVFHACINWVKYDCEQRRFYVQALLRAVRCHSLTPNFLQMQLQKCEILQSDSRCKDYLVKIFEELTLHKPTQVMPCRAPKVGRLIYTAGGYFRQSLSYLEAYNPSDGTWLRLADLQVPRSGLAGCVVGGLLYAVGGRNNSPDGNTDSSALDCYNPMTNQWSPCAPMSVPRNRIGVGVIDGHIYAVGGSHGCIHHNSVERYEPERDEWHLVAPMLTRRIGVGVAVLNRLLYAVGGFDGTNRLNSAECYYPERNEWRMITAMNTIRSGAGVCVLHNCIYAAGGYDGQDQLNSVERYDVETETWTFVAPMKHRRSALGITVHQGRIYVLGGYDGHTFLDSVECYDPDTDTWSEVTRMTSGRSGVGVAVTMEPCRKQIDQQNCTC

Row | Molecule | IC50 [2] | EC50 [3, 6] [nM] | EC50 [3, 7] [nM] | EC50 ([4]; BEAS+, read-out: BEAS+ EC50) [nM] | EC50 [4, 10] [nM] | also measured
1 | Cc1c2ccc3c1nnn3CCCCCCc1ccc(cc1)C(=O)N1CCc3ccc(cc3C1)[C@@H]2CC(=O)O (single isomer, unassigned) [Compound 223] | 0.5 nM and 0.9 nM and 1.2 nM (2×) | – | – | – | – | EC50 [1]: 0.015 µM
2 | Cc1c2ccc3c1nnn3CCCCCCOc1ccc(cc1)C(=O)N1CCc3ccc(cc3C1)[C@@H]2[C@@H](C)C(=O)O [Compound 107] | 1.6 nM | 0.6 | 0.4 | 2.4 | 3.2 | EC50 [1]: 0.038 µM; EC50 ([3]; Homo sapiens, Serum Free W, read-out: BEAS EC50 (nM) Serum Free W): 3.6 nM; EC50 ([3]; Serum Free W, read-out: BEAS EC50 (nM) Serum Free W): 4.1 nM; EC50 [4, 8]: 32.7 nM; EC50 [4, 9]: 16.7 nM
3 | Cc1c2ccc3c1nnn3CCCCCCc1ccc(cc1)C(=O)N1CCc3ccc(cc3C1)[C@H]2[C@@H](C)C(=O)O [Compound 129] | – | 1360 | 1220 | 3080 | 2190 | EC50 [1]: 0.013 µM; EC50 [4, 8]: 2.2 nM and 1.6 nM and 1.9 nM; EC50 [4, 9]: 2 nM
4 | Cc1cc2ccc1C(=O)N1CCc3ccc(cc3C1)[C@@H](CC(=O)O)c1ccc3c(nnn3CCCCCC2)c1C [Compound 240] | – | 1.1 | 0.6 | 0.6 | 1 | EC50 [1]: 0.018 µM
5 | O=C(O)CC1c2ccc3c(c2)CN(CC3)C(=O)c2c(F)cc(cc2F)CCCCCn2nnc3cc1ccc32 (stereo not shown) [Compound 241] | 0.4 nM | – | – | – | – | EC50 [1]: 0.095 µM
6 | O=C(O)CC1c2ccc3c(c2)CN(CC3)C(=O)c2ccc(c3ccccc23)OCCCCCCn2nnc3cc1ccc32 (stereo not shown) [Compound 338] | 0.2 nM and 0.1 nM | 25.3 | – | – | 27.5 | EC50 [1]: 0.667 µM
7 | Cc1c2ccc3c1nnn3C/C=C/COCc1ccc(c(F)c1)C(=O)N1CCc3ccc(cc3C1)C2CC(=O)O (stereo not shown) [Compound 386] | 1.9 nM and 2 nM | 90.3 | 89 | 105 | 123 | –
8 | Cc1c2ccc3c1nnn3CCCCOCc1ccc(c(F)c1)C(=O)N1CCc3ccc(cc3C1)C2CC(=O)O (stereo not shown) [Compound 387] | 1.5 nM and 1.7 nM | 95.9 | 75.2 | 90.3 | 62.6 | –
9 | Cc1c2ccc3c1nnn3CCCCCOc1ccc3ccc(cc3c1)C(=O)N1CCc3ccc(cc3C1)C2CC(=O)O (stereo not shown) [Compound 388] | 1.6 nM | 51.4 | 44.2 | 876 | 464 | –
10 | Cc1cc2ccc1C(=O)N1CCc3ccc(cc3C1)[C@H](CC(=O)O)c1ccc3c(nnn3CCC/C=C/C2)c1C [Compound 389] | 1.8 nM and 1.9 nM | 147 | 153 | 409 | 231 | –
11 | O=C(O)CC1c2ccc(cc2)OCCCCCCOc2ccc(cc2)C(=O)N2CCc3ccc1cc3C2 (stereo not shown) [Compound 391] | 276 nM and 265 nM | 8.8 | 7.9 | 1950 | 2060 | –
12 | Cc1cc2ccc1C(=O)N1CCc3ccc(cc3C1)[C@@H](CC(=O)O)c1ccc3c(nnn3CCC/C=C/C2)c1C [Compound 392] | 0.5 nM | 10.6 | 10.3 | 15.5 | 13.7 | –
13 | Cc1c2ccc3c1nnn3CCCCCn1ccc3ccc(cc31)C(=O)N1CCc3ccc(cc3C1)C2CC(=O)O (stereo not shown) [Compound 393] | 3.8 nM and 4.3 nM | 2450 | 2110 | 2250 | 1890 | –
14 | Cc1c2ccc3c1nnn3CCCCCCn1ccc3ccc(cc31)C(=O)N1CCc3ccc(cc3C1)C2CC(=O)O (stereo not shown) [Compound 394] | 9 nM and 10.4 nM | 3100 | 2900 | 2860 | 2690 | –
15 | O=C(O)CC1c2ccc(cc2)OCCCCCc2ccc(cc2)C(=O)N2CCc3ccc1cc3C2 (stereo not shown) [Compound 396] | 94.7 nM and 138 nM | 80.5 | 78.2 | 176 | 204 | –
16 | O=C(O)CC1c2ccc3c(c2)CN(CC3)C(=O)c2ccc3c(ccn3CCCCCCn3nnc4cc1ccc43)c2 (stereo not shown) [Compound 397] | 13.9 nM and 14.8 nM | 597 | 659 | 2150 | 1520 | –
17 | O=C(O)CC1c2ccc(cc2)OCCCCCOc2ccc(cc2)C(=O)N2CCc3ccc1cc3C2 (stereo not shown) [Compound 399] | > 1000 nM and 335 nM | 479 | 407 | 2000 | 1980 | –
18 | amide of methyl 3-(1-(but-3-en-1-yl)-1H-benzo[d][1,2,3]triazol-5-yl)-3-(1,2,3,4-tetrahydroisoquinolin-7-yl)propanoate with 4-(allyloxy)benzoic acid | – | – | – | – | – | ring closure, isolated yield [5, 11]: 47%
19 | amide of methyl 3-(4-methyl-1-(pent-4-en-1-yl)-1H-benzo[d][1,2,3]triazol-5-yl)-3-(1,2,3,4-tetrahydroisoquinolin-7-yl)propanoate with 1-methyl-5-vinyl-1H-indole-3-carboxylic acid | – | – | – | – | – | ring closure, isolated yield ([5]; rcm bond, 21-membered ring, Grubbs catalyst (General procedure 7)): 65%
20 | amide of methyl 3-(4-methyl-6-(pent-4-en-1-yloxy)pyridin-3-yl)-3-(1,2,3,4-tetrahydroisoquinolin-7-yl)propanoate with 4-vinylbenzoic acid | – | – | – | – | – | ring closure, isolated yield ([5]; rcm bond, 21-membered ring, Grubbs catalyst (General procedure 15)): 64%
21 | amide of rel-methyl (R)-3-(1-(hex-5-en-1-yl)-4-methyl-1H-benzo[d]imidazol-5-yl)-3-(1,2,3,4-tetrahydroisoquinolin-7-yl)propanoate with 4-vinylbenzoic acid | – | – | – | – | – | ring closure, isolated yield ([5]; rcm bond, 22-membered ring, Grubbs II (extra portion)): 27%
22 | amide of rel-methyl (S)-3-(4-methyl-1-(pent-4-en-1-yl)-1H-benzo[d][1,2,3]triazol-5-yl)-3-(1,2,3,4-tetrahydroisoquinolin-7-yl)propanoate with 4-allylbenzoic acid | – | – | – | – | – | ring closure, isolated yield [5, 11]: 99%
23 | free amino acid (NH tetrahydroisoquinoline, CO2H benzoic acid) from deprotection of Mitsunobu di-ether of tert-butyl 7-(3-(benzyloxy)-1-(1-(3-(2-hydroxyethoxy)propyl)-4-methyl-1H-benzo[d][1,2,3]triazol-5-yl)-3-oxopropyl)-3,4-dihydroisoquinoline-2(1H)-carboxylate with tert-butyl 2,6-difluoro-4-hydroxybenzoate | – | – | – | – | – | ring closure, isolated yield ([5]; amide bond, 23-membered ring, HATU/Et3N): 30%
